Assay results: ChEMBL document CHEMBL5032527, “N-(4-acetamidophenyl)-5-acetylfuran-2-carboxamide as a novel orally available diuretic that targets urea transporters with improved PD and PK properties” (Eur J Med Chem, 2021)
The source made the active and inactive calls. The calls are words filed in the database; no cut-off is given here.

Experiments:
Urea transporter 1 [1] = target: T1, Urea transporter 1 (Mus musculus, UniProt Q8VHL0); test: Inhibition of mouse UT-B expressed in MDCK cells; assay type: cell-based
T1 sequence (Q8VHL0 whole entry): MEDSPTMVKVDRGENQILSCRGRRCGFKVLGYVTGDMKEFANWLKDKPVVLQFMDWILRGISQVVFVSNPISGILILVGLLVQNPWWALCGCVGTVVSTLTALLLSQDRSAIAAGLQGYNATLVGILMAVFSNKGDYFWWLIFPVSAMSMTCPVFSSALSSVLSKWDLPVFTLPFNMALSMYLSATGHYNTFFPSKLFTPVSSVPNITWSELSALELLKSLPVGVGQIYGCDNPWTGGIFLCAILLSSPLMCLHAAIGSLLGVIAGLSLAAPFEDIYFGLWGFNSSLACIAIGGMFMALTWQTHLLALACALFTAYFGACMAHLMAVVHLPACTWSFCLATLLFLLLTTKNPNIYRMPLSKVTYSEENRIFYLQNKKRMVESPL

Urea transporter 1 [2] = target: T2, Urea transporter 1 (Rattus norvegicus, UniProt P97689); test: Inhibition of rat UT-B expressed in MDCK cells; assay type: cell-based
T2 sequence (P97689 whole entry): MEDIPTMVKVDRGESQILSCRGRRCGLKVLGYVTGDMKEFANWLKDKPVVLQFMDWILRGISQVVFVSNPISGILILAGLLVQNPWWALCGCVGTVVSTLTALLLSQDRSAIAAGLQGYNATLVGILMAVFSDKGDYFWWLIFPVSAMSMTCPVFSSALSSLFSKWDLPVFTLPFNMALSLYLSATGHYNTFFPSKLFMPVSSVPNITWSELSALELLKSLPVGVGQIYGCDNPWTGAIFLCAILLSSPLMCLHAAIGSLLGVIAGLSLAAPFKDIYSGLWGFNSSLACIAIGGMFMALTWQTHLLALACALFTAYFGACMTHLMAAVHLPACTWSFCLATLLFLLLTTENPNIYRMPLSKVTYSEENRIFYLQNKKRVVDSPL

[3] = AUC (0 to infinity) in Sprague-Dawley rat at 100 mg/kg, po by LC-MS/MS analysis; assay type: ADME, organism-based; parameters: route oral, time infinity, dose 100 mg/kg; details: in vivo
[4] = Metabolic stability in Sprague-Dawley rat liver microsomes assessed as percentage of compound remaining after 240 mins by LC-MS/MS analysis; assay type: ADME, Microsome; details: read-out: Stability
[5] = Half life in Sprague-Dawley rat at 100 mg/kg, po by LC-MS/MS analysis; assay type: ADME, organism-based; details: in vivo
[6] = Metabolic stability in Sprague-Dawley rat plasma assessed as percentage of compound remaining after 240 mins by LC-MS/MS analysis; assay type: ADME, cell-free; details: read-out: Stability
[7] = Bioavailability in Sprague-Dawley rat at 100 mg/kg, po by LC-MS/MS analysis; assay type: ADME, organism-based; details: in vivo
[8] = AUC (0 to t) in Sprague-Dawley rat at 100 mg/kg, po by LC-MS/MS analysis; assay type: ADME, organism-based; parameters: dose 100 mg/kg; details: in vivo
MDCK [9] = test: Inhibition of rat UT-A1 expressed in MDCK cells assessed as inhibition of urea transport at 8 uM; assay type: cell-based
[10] = Cmax in Sprague-Dawley rat at 100 mg/kg, po by LC-MS/MS analysis; assay type: ADME, organism-based; parameters: route oral, dose 100 mg/kg; details: in vivo
[11] = MRT in Sprague-Dawley rat at 100 mg/kg, po by LC-MS/MS analysis; assay type: ADME, organism-based; details: in vivo
Rattus norvegicus [12] = test: Diuretic activity in Sprague-Dawley rat assessed as increase in urine volume at 100 mg/kg, IG after 4 hrs; assay type: functional, organism-based
MDCK [13] = test: Cytotoxicity against MDCK cells assessed as reduction in cell viability at 80 uM measured by CCK-8 assay; assay type: cell-based, Canis lupus familiaris; details: dog
Mus musculus [14] = test: Diuretic activity in mouse assessed as increase in urine output at 100 mg/kg, IG measured after 7 days; assay type: functional, organism-based; details: time 7.0 day
[15] = target: Voltage-gated inwardly rectifying potassium channel KCNH2 (Homo sapiens, UniProt Q12809); test: Inhibition of hERG; details: read-out: INH
[16] = target: T3, Urea transporter 1 (Rattus norvegicus) (UniProt P97689); test: Inhibition of rat UT-B expressed in MDCK cells assessed as inhibition of urea transport at 8 uM; assay type: cell-based
T3 sequence (whole entry): T2 sequence (P97689 whole entry)

in vivo = details: Sprague-Dawley, rat, po, 100 mg/kg
Rattus norvegicus [17] = test: Diuretic activity in Sprague-Dawley rat assessed as increase in urine volume at 100 mg/kg, IG; assay type: functional, organism-based; details: TDE = time-dependent effect
Mus musculus [18] = species on record: Mus musculus; test: Diuretic activity in mouse assessed as reduction in urine osmolality; assay type: functional, organism-based
Rattus norvegicus [19] = test: Diuretic activity in Sprague-Dawley rat assessed as increase in urine volume at 50 mg/kg, IG after 2 hrs; assay type: functional, organism-based
Rattus norvegicus [20] = species on record: Rattus norvegicus; test: Diuretic activity in IG treated Sprague-Dawley rat assessed as reduction in urine osmolality; assay type: functional
Mus musculus [21] = species on record: Mus musculus; test: Diuretic activity in mouse assessed as increase in urine volume; assay type: functional, organism-based
MDCK [22] = test: Cytotoxicity against MDCK cells assessed as reduction in cell viability at 400 uM measured by CCK-8 assay; assay type: cell-based, Canis lupus familiaris; details: dog
Rattus norvegicus [23] = test: Diuretic activity in Sprague-Dawley rat assessed as increase in urine volume at 100 mg/kg, IG after 2 hrs; assay type: functional, organism-based

Chain of Voltage-gated inwardly rectifying potassium channel KCNH2 (Q12809 whole entry): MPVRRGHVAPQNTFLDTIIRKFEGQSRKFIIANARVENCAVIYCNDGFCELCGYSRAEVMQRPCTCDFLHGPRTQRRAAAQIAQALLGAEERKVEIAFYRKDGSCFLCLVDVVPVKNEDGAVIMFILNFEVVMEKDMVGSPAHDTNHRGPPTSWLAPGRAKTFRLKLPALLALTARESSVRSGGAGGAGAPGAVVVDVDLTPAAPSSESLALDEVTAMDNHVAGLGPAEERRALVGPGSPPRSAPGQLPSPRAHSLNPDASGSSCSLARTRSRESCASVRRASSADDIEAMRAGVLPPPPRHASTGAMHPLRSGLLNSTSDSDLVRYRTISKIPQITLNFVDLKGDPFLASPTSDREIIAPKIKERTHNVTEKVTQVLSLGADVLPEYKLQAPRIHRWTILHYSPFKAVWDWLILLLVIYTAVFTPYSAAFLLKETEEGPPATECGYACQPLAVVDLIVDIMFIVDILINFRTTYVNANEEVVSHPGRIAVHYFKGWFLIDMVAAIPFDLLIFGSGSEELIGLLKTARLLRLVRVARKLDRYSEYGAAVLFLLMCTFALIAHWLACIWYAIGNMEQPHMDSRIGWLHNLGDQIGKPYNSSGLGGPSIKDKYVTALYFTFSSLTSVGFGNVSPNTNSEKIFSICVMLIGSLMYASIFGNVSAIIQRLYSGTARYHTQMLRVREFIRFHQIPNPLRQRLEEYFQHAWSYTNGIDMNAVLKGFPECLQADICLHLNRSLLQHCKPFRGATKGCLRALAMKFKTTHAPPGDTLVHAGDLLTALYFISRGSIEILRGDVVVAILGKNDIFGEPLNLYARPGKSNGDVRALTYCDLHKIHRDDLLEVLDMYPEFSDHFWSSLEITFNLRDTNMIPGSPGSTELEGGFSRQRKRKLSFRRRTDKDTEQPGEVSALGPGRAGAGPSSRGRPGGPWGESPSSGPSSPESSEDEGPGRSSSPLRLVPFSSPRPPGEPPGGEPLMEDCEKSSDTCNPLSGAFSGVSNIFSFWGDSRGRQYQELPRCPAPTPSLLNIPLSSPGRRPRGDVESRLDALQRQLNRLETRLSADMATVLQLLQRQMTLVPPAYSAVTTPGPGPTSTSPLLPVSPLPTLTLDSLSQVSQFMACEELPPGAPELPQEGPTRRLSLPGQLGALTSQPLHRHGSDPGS

Row | SMILES | IC50 (Urea transporter 1 [1]) [nM] | IC50 (Urea transporter 1 [2]) [nM] | other results
1 | CC(=O)Nc1ccc(NC(=O)c2ccc(C(F)F)o2)cc1 | > 10000 | > 10000 | 
2 | CCS(=O)(=O)Nc1ccc(NC(=O)c2ccc([N+](=O)[O-])o2)cc1 | 840 | 280 | 
3 | O=C1Cc2cc(NC(=O)c3ccc([N+](=O)[O-])o3)ccc2N1 | 4990 | 3170 | 
4 | O=C(Nc1ccc(NS(=O)(=O)c2cccc(Br)c2)cc1)c1ccc([N+](=O)[O-])o1 | 1600 | 810 | 
5 | O=C(Nc1ccc2ccc(=O)[nH]c2c1)c1ccc([N+](=O)[O-])o1 | 1500 | 600 | 
6 | CC(=O)Nc1ccc(NC(=O)c2ccc([N+](=O)[O-])o2)cc1 |  | 1410 | AUC(0-inf) [3]: 82.5 ng·h/mL; remaining at 4 h [4]: 20%; t1/2 [5]: 0.93 h; remaining at 4 h [6]: 20%; bioavailability [7]: 4.38%; AUC(0-t) [8]: 78.1 ng·h/mL; inhibition (MDCK [9]): 102%; Cmax [10]: 74.3 ng/mL; MRT [11]: 1.51 h; Activity (Rattus norvegicus [12]): inactive
7 | O=C(Nc1ccc(NS(=O)(=O)c2ccccc2F)cc1)c1ccc([N+](=O)[O-])o1 | 1680 | 1040 | 
8 | CC(=O)c1ccc(C(=O)Nc2ccc(NS(=O)(=O)c3ccccc3)cc2)o1 | 160 | 150 | Activity (MDCK [13]): Toxic
9 | CC(=O)Nc1ccc(NC(=O)c2ccc(F)o2)cc1 | > 10000 | 6470 | 
10 | CC(=O)Nc1ccc(NC(=O)c2ccc(C(C)=O)o2)cc1 |  |  | Activity (Mus musculus [14]): Active; IC50 [15]: > 100000 nM; remaining at 4 h [4]: 20%; inhibition [16]: 89.6%; remaining at 4 h [6]: 20%; bioavailability [7]: 15.8%; AUC(0-t) [8]: 6840 ng·h/mL; Tmax (in vivo): 0.21 h; inhibition (MDCK [9]): 84.4%; Activity (Rattus norvegicus [17]): Tde; Cmax [10]: 1240 ng/mL; Activity (Mus musculus [18]): Active; Activity (Rattus norvegicus [19]): Active; MRT [11]: 5.45 h; fold change (FC) (Rattus norvegicus [20]): 10; Activity (Mus musculus [21]): Active; Activity (MDCK [22]): Toxic; Activity (Rattus norvegicus [23]): Active
11 | O=C1CCc2cc(NC(=O)c3ccc([N+](=O)[O-])o3)ccc2N1 | 2190 | 1060 | 
12 | O=C(Nc1ccc(NS(=O)(=O)c2ccccc2C(F)(F)F)cc1)c1ccc([N+](=O)[O-])o1 | 1490 | 870 | 
13 | O=C(Nc1cccc2ccc(=O)[nH]c12)c1ccc([N+](=O)[O-])o1 | > 10000 | 6050 | 
14 | O=C(Nc1ccc(NS(=O)(=O)c2ccccc2Cl)cc1)c1ccc([N+](=O)[O-])o1 | 1050 | 530 | 
15 | O=C(Nc1ccc(NS(=O)(=O)c2ccccc2)cc1)c1ccc([N+](=O)[O-])o1 | 240 | 110 | 
16 | O=C(Nc1ccc(NS(=O)(=O)c2ccc(C(F)(F)F)cc2)cc1)c1ccc([N+](=O)[O-])o1 | 3470 | 2770 | 
17 | O=C(Nc1ccc(NS(=O)(=O)c2cccc(Cl)c2)cc1)c1ccc([N+](=O)[O-])o1 | 1010 | 750 | 
18 | CC(=O)Nc1ccc(NC(=O)c2ccc(C(=O)C(C)(C)C)o2)cc1 | > 10000 | > 10000 | 
19 | O=C(Nc1ccc(NS(=O)(=O)c2cccc(F)c2)cc1)c1ccc([N+](=O)[O-])o1 | 1320 | 660 | 
20 | O=C(Nc1ccc(NS(=O)(=O)c2cccc(C(F)(F)F)c2)cc1)c1ccc([N+](=O)[O-])o1 | 2220 | 1660 | 
21 | O=C(Nc1ccc2[nH]c(=O)ccc2c1)c1ccc([N+](=O)[O-])o1 | 2340 | 1230 | 
22 | O=C(Nc1ccc(NS(=O)(=O)c2ccc(Cl)cc2)cc1)c1ccc([N+](=O)[O-])o1 | 690 | 430 | 
23 | O=C(Nc1cccc2[nH]c(=O)ccc12)c1ccc([N+](=O)[O-])o1 | > 10000 | > 10000 | 
24 | CC(=O)Nc1ccc(NC(=O)c2ccc(C(=O)c3ccccc3)o2)cc1 | 9850 | > 10000 | 
25 | O=C(Nc1ccc(NS(=O)(=O)c2ccc(F)cc2)cc1)c1ccc([N+](=O)[O-])o1 | 1310 | 640 | 
